Source: PMC4262413, “Importance of Tryptophan in Transforming an Amphipathic Peptide into a Pseudomonas aeruginosa-Targeted Antimicrobial Peptide” (PLoS ONE, 2014)
Values after ≈ are worked out from the molar mass of the structure shown. Where two headings read alike, the source gives them in different places. One block for each compound: values may come before it. Residues, ends and D or L forms follow the SMILES beside them.

What was measured:
Assay in all cases: microbe, parasite or virus in culture
E. coli 25922 = type: cell-based, Escherichia coli
Experimental: (§1) Minimal inhibitory concentration (MIC) assays were performed as described previously. Briefly, after incubation overnight in Mueller-Hinton (MH) broth at 37°C, the bacteria were grown to exponential growth phase and diluted to approximately 1×10^5 CFU/ml. The peptides were dissolved in 0.2% bovine serum albumin (BSA) containing 0.01% (v/v) acetic acid, and they were then added to each well of a 96-well plates at a final concentration ranging from 0.25 to 128 µM. Each well contained a total volume of 100 µL (50 µL of inoculums and 50 µL of peptide-containing solution). The MICs were determined as the lowest concentration of peptide that prevented visible turbidity by visual inspection after incubation at 37°C for 16–18 h. Independent experiments were carried out at least three times. Uninoculated MH broth was used as a negative control and cultures without added peptides served as the positive control. Minimal bactericidal concentration (MBC) assay was performed following MIC assay. At the end of MIC assay 10 µL aliquots of the medium were taken from peptide-containing wells with no visible bacterial growth. These are plated on MH agar, incubated for 18 h to allow colony growth. The MBC was defined as the lowest peptide concentration resulting in no bacterial growth in the media. Each assay was performed at least three times.

S. typhimurium 7731 = type: cell-based, Salmonella typhimurium
Experimental: as §1

S. aureus 29213 = type: cell-based, Staphylococcus aureus
Experimental: as §1

S. epidermidis 12228 = type: cell-based, Staphyfococcus epidermidis
Experimental: as §1

P. aeruginosa 27853 = type: cell-based, Pseudomonas aeruginosa
Experimental: as §1

P. auruginosa 10419 = type: cell-based, Pseudomonas aeruginosa
Experimental: as §1

P. auruginosa 21625 = type: cell-based, Pseudomonas aeruginosa
Experimental: as §1

P. auruginosa 21630 = type: cell-based, Pseudomonas aeruginosa
Experimental: as §1

P. auruginosa LC = type: cell-based, Pseudomonas aeruginosa
Experimental: as §1

[1] = tested on: P. auruginosa LCCE (ceftazidime-resistant strain)
Experimental: as §1
(§2) The antimicrobial activity of the RI16 and mutant peptides against Gram-negative and Gram-positive bacteria were determined.

[2] = tested on: P. auruginosa LCCI (ciprofloxacin-resistant strain)
Experimental: as §1, §2

[3] = tested on: P. auruginosa LCGE (gentamincin-resistant strain)
Experimental: as §1, §2

SMILES: NCC[C@H](O)C(=O)N[C@@H]1C[C@H](N)[C@@H](O[C@H]2O[C@H](CN)[C@@H](O)[C@H](O)[C@H]2O)[C@H](O)[C@H]1O[C@H]1O[C@H](CO)[C@@H](O)[C@H](N)[C@H]1O [Amikacin, reference compound]
MIC (E. coli 25922; Escherichia coli, 25922): 0.125 µM (≈ 0.0732 µg/mL)
MIC (S. typhimurium 7731; Salmonella enterica, S. typhimurium 7731, MH broth, ~1×10^5 CFU/ml, 37°C, 16–18 h, visible turbidity, at least three independent experiments): 0.5 µM (≈ 0.293 µg/mL)
MIC (S. aureus 29213; Staphylococcus aureus, S. aureus 29213, MH broth, ~1×10^5 CFU/ml, 37°C, 16–18 h, visible turbidity, at least three independent experiments): 1 µM (≈ 0.586 µg/mL)
MIC (S. epidermidis 12228; Staphylococcus epidermidis, 12228): 0.125 µM (≈ 0.0732 µg/mL)
MIC (P. aeruginosa 27853; Pseudomonas aeruginosa, P. auruginosa 27853, MH broth, ~1×10^5 CFU/ml, 37°C, 16–18 h, visible turbidity, at least three independent experiments): 1 µM (≈ 0.586 µg/mL)
MIC (P. auruginosa 10419; Pseudomonas aeruginosa, P. auruginosa 10419, MH broth, ~1×10^5 CFU/ml, 37°C, 16–18 h, visible turbidity, at least three independent experiments): 2 µM (≈ 1.17 µg/mL)
MIC (P. auruginosa 21625; Pseudomonas aeruginosa, P. auruginosa 21625, MH broth, ~1×10^5 CFU/ml, 37°C, 16–18 h, visible turbidity, at least three independent experiments): 16 µM (≈ 9.37 µg/mL)
MIC (P. auruginosa 21630; Pseudomonas aeruginosa, P. auruginosa 21630, MH broth, ~1×10^5 CFU/ml, 37°C, 16–18 h, visible turbidity, at least three independent experiments): 1 µM (≈ 0.586 µg/mL)
MIC (P. auruginosa LC; Pseudomonas aeruginosa, P. auruginosa LC, MH broth, ~1×10^5 CFU/ml, 37°C, 16–18 h, visible turbidity, at least three independent experiments): 0.25 µM (≈ 0.146 µg/mL)
MIC ([1]; Pseudomonas aeruginosa): 8 µM (≈ 4.68 µg/mL)
MIC ([2]; Pseudomonas aeruginosa): 8 µM (≈ 4.68 µg/mL)
MIC ([3]; Pseudomonas aeruginosa): > 1280 µM

SMILES: CC[C@H](C)[C@H](NC(=O)[C@H](CCCCN)NC(=O)[C@H](CCCCN)NC(=O)[C@H](CC(C)C)NC(=O)[C@H](CCCNC(=N)N)NC(=O)[C@H](CCCCN)NC(=O)[C@H](CCCNC(=N)N)NC(=O)[C@@H](NC(=O)[C@H](CCCCN)NC(=O)[C@H](CCCCN)NC(=O)[C@H](CCCNC(=N)N)NC(=O)[C@H](CC(C)C)NC(=O)[C@H](CCCNC(=N)N)NC(=O)[C@H](CCCNC(=N)N)NC(=O)[C@H](Cc1ccccc1)NC(=O)[C@@H](N)CCCNC(=N)N)[C@@H](C)O)C(N)=O [RI16] (H-RFRRLRKKTRKRLKKI-NH2)
MIC (E. coli 25922; E. coli 25922, MH broth, ~1×10^5 CFU/ml, 37°C, 16–18 h, visible turbidity, at least three independent experiments): 128 µM (≈ 279 µg/mL)
MIC (S. typhimurium 7731; S. typhimurium 7731, MH broth, ~1×10^5 CFU/ml, 37°C, 16–18 h, visible turbidity, at least three independent experiments): 128 µM (≈ 279 µg/mL)
MIC (S. aureus 29213; S. aureus 29213, MH broth, ~1×10^5 CFU/ml, 37°C, 16–18 h, visible turbidity, at least three independent experiments): 128 µM (≈ 279 µg/mL)
MIC (S. epidermidis 12228; S. epidermidis 12228, MH broth, ~1×10^5 CFU/ml, 37°C, 16–18 h, visible turbidity, at least three independent experiments): 32 µM (≈ 69.8 µg/mL)
MIC (P. aeruginosa 27853; P. auruginosa 27853, MH broth, ~1×10^5 CFU/ml, 37°C, 16–18 h, visible turbidity, at least three independent experiments): 256 µM (≈ 559 µg/mL)
MIC (P. auruginosa 10419; P. auruginosa 10419, MH broth, ~1×10^5 CFU/ml, 37°C, 16–18 h, visible turbidity, at least three independent experiments): 256 µM (≈ 559 µg/mL)
MIC (P. auruginosa 21625; P. auruginosa 21625, MH broth, ~1×10^5 CFU/ml, 37°C, 16–18 h, visible turbidity, at least three independent experiments): 256 µM (≈ 559 µg/mL)
MIC (P. auruginosa 21630; P. auruginosa 21630, MH broth, ~1×10^5 CFU/ml, 37°C, 16–18 h, visible turbidity, at least three independent experiments): 256 µM (≈ 559 µg/mL)
MIC (P. auruginosa LC; P. auruginosa LC, MH broth, ~1×10^5 CFU/ml, 37°C, 16–18 h, visible turbidity, at least three independent experiments): 32 µM (≈ 69.8 µg/mL)
MIC ([1]; P. auruginosa LCCE, ceftazidime-resistant strain, MH broth, ~1×10^5 CFU/ml, 37°C, 16–18 h, visible turbidity): 256 µM (≈ 559 µg/mL)
MIC ([2]; P. auruginosa LCCI, ciprofloxacin-resistant strain, MH broth, ~1×10^5 CFU/ml, 37°C, 16–18 h, visible turbidity): 256 µM (≈ 559 µg/mL)
MIC ([3]; P. auruginosa LCGE, gentamincin-resistant strain, MH broth, ~1×10^5 CFU/ml, 37°C, 16–18 h, visible turbidity): 256 µM (≈ 559 µg/mL)

MIC (E. coli 25922; 25922): 64 µM (≈ 143 µg/mL)
MIC (S. typhimurium 7731; 7731): 128 µM (≈ 285 µg/mL)
MIC (S. aureus 29213; 29213): 128 µM (≈ 285 µg/mL)
MIC (S. epidermidis 12228; 12228): 32 µM (≈ 71.3 µg/mL)
MIC (P. aeruginosa 27853; 27853): 256 µM (≈ 571 µg/mL)
MIC (P. auruginosa 10419): 256 µM (≈ 571 µg/mL)
MIC (P. auruginosa 21625): 256 µM (≈ 571 µg/mL)
MIC (P. auruginosa 21630): 256 µM (≈ 571 µg/mL)
MIC (P. auruginosa LC): 64 µM (≈ 143 µg/mL)
MIC [1]: 256 µM (≈ 571 µg/mL)
MIC [2]: 256 µM (≈ 571 µg/mL)
MIC [3]: 256 µM (≈ 571 µg/mL)
SMILES: CC[C@H](C)[C@H](NC(=O)[C@H](CCCCN)NC(=O)[C@H](CCCCN)NC(=O)[C@H](CC(C)C)NC(=O)[C@H](CCCNC(=N)N)NC(=O)[C@H](CCCCN)NC(=O)[C@H](CCCNC(=N)N)NC(=O)[C@H](Cc1ccccc1)NC(=O)[C@H](CCCCN)NC(=O)[C@H](CCCCN)NC(=O)[C@H](CCCNC(=N)N)NC(=O)[C@H](CC(C)C)NC(=O)[C@H](CCCNC(=N)N)NC(=O)[C@H](CCCNC(=N)N)NC(=O)[C@H](Cc1ccccc1)NC(=O)[C@@H](N)CCCNC(=N)N)C(N)=O [T9F] (H-RFRRLRKKFRKRLKKI-NH2)

MIC (E. coli 25922; 25922): 128 µM (≈ 281 µg/mL)
MIC (S. typhimurium 7731; 7731): 256 µM (≈ 562 µg/mL)
MIC (S. aureus 29213; 29213): 256 µM (≈ 562 µg/mL)
MIC (S. epidermidis 12228; 12228): 32 µM (≈ 70.2 µg/mL)
MIC (P. aeruginosa 27853; 27853): 256 µM (≈ 562 µg/mL)
MIC (P. auruginosa 10419): 256 µM (≈ 562 µg/mL)
MIC (P. auruginosa 21625): 256 µM (≈ 562 µg/mL)
MIC (P. auruginosa 21630): 256 µM (≈ 562 µg/mL)
MIC (P. auruginosa LC): 64 µM (≈ 140 µg/mL)
MIC [1]: 256 µM (≈ 562 µg/mL)
MIC [2]: 256 µM (≈ 562 µg/mL)
MIC [3]: 256 µM (≈ 562 µg/mL)
SMILES: CC[C@H](C)[C@H](NC(=O)[C@H](CCCCN)NC(=O)[C@H](CCCCN)NC(=O)[C@H](CC(C)C)NC(=O)[C@H](CCCNC(=N)N)NC(=O)[C@H](CCCCN)NC(=O)[C@H](CCCNC(=N)N)NC(=O)[C@@H](NC(=O)[C@H](CCCCN)NC(=O)[C@H](CCCCN)NC(=O)[C@H](CCCNC(=N)N)NC(=O)[C@H](CC(C)C)NC(=O)[C@H](CCCNC(=N)N)NC(=O)[C@H](CCCNC(=N)N)NC(=O)[C@H](Cc1ccccc1)NC(=O)[C@@H](N)CCCNC(=N)N)[C@@H](C)CC)C(N)=O [T9I] (H-RFRRLRKKIRKRLKKI-NH2)

SMILES: CC[C@H](C)[C@H](NC(=O)[C@H](CCCCN)NC(=O)[C@H](CCCCN)NC(=O)[C@H](CC(C)C)NC(=O)[C@H](CCCNC(=N)N)NC(=O)[C@H](CCCCN)NC(=O)[C@H](CCCNC(=N)N)NC(=O)[C@H](CCCCN)NC(=O)[C@H](CCCCN)NC(=O)[C@H](CCCCN)NC(=O)[C@H](CCCNC(=N)N)NC(=O)[C@H](CC(C)C)NC(=O)[C@H](CCCNC(=N)N)NC(=O)[C@H](CCCNC(=N)N)NC(=O)[C@H](Cc1ccccc1)NC(=O)[C@@H](N)CCCNC(=N)N)C(N)=O [T9K] (H-RFRRLRKKKRKRLKKI-NH2)
MIC (E. coli 25922; 25922): 128 µM (≈ 283 µg/mL)
MIC (S. typhimurium 7731; 7731): 256 µM (≈ 566 µg/mL)
MIC (S. aureus 29213; 29213): 128 µM (≈ 283 µg/mL)
MIC (S. epidermidis 12228; 12228): 128 µM (≈ 283 µg/mL)
MIC (P. aeruginosa 27853; 27853): 128 µM (≈ 283 µg/mL)
MIC (P. auruginosa 10419): 256 µM (≈ 566 µg/mL)
MIC (P. auruginosa 21625): 256 µM (≈ 566 µg/mL)
MIC (P. auruginosa 21630): 256 µM (≈ 566 µg/mL)
MIC (P. auruginosa LC): 256 µM (≈ 566 µg/mL)

SMILES: CC(C)(O/N=C(\C(=O)N[C@@H]1C(=O)N2C(C(=O)[O-])=C(C[n+]3ccccc3)CS[C@H]12)c1csc(N)n1)C(=O)O [ceftazidime, reference compound]
MIC ([1]; Pseudomonas aeruginosa): > 512 µM

SMILES: O=C(O)c1cn(C2CC2)c2cc(N3CCNCC3)c(F)cc2c1=O [ciprofloxacin, reference compound]
MIC ([2]; Pseudomonas aeruginosa): > 512 µM
